# Laboratory results as given in patent US20060276412A1, “METHODS AND COMPOSITIONS FOR MANAGING PSYCHOTIC DISORDERS” (priority 2005, published 2006).
# Experiments:
# [1] = tested on: dopamine (DA) in hypothalamus; test: Brain microdialysis: dopamine in hypothalamus; assay type: in vivo, rats; settings: 3 mg/kg olanzapine
# From the text: (§1) 62 adult Sprague-Dawley male rats (Harland, Indianapolis) weighing 300-350 g were used in the following studies. The rats were quarantined for at least five days in group housing. Following the quarantine procedure, rats were maintained in individual cages. For surgical implantation with intracerebral guides, guides were inserted directly above either the hypothalamus (HT) (31 rats), or the medial prefrontal cortex (mPFC) (31 rats). Stereotaxic coordinates (Paxinos and Watson, 1986) provided below were used to position the guide cannulae and/or probes: Animals were anesthetiszed according using standard procedures. The head of each animal was shaved from the front of the eyes to the back of the skull. Shaved areas were disinfected, and the animals were placed in stereotaxic frame ear bars. The animal was aligned with the incisor bar. The animal's scalp was cut with a sharp #15 scalpel blade. If the bone began to bleed, bone wax was applied to the incision. Periosteal tissue was cleaned from the skull to the lateral ridges with a cotton swab, and clamps were used to pull the skin out of the way. The probe or guide was placed in the clamp, such that the angled outlet cannula of the microdialysis probe was angled towards the animal's tail. The target coordinates were calculated, and this point was marked on the skull. Two holes in opposing skull bones were drilled for bone anchor screws and thread screws. The dura was torn away with a sharp, pointed object. The guide cannulae were placed at the dorsal/ventral zero point. […] Using dental acrylic, the cannulae were cemented to the bone anchor screws. The cement was allowed to harden and the rodent was removed from the stereotaxic frame. The cranial and caudal aspects of the incision were sutured. The animals were allowed to recover for three to five days. Stylets in the guides were replaced with dialysis probes on the evening prior to study to allow for animal acclimation and to reestablish the integrity of the blood brain barrier. […] Rats were weighed pre-surgery, every 1-2 days post-surgery until time of microdialysis, and postmortem. Microdialysis probes used in the experiments described below were first soaked in standard Ringer's perfusion medium for 30 minutes. Inlet and outlet tubing was connected to each probe using flanged connectors. The outlet tubing was connected to a fraction collector, and the inlet was connected to and […] syringe drive. The probes were immersed in fresh Ringer's solution and flushed with Ringer's perfusion medium at a rate of 2 μl/min for 1 hour. The probe was then transferred to the intracerebral guide on the rat's skull. […] Water was added to obtain a final concentration of 0.3 mg/ml. […] Zonisamide was dissolved in DMSO. […] The final concentration of zonisamide was 7.5 mg/ml. The drug solution was maintained at 37° C. prior to injection. The rats were divided into ten test groups. Five animals were analyzed for each test group. The test groups were as follows: For the microdialysis experiments, perfusion consisted of 2 μl/min delivery of sterile standard Ringer's solution for intervals of 20 minutes. Final collection volumes were 40 μl. 30 μl samples were analyzed for each analyte: DA, NE, 5HT. 12 pre-dose samples and 12 post dose samples were collected every 20 minutes for a duration of 4 hours, both pre-dose and post-dose. Six samples from the pre-dose and post-dose collections were analyzed for norepinephrine. The remaining six samples from the pre-dose and post-dose collections were analyzed for both dopamine and serotonin. Samples were chilled to -80° C. immediately following collection. The samples were analyzed using liquid chromatography with electrochemical detection using conventional techniques. See, e.g., Huang, T., R. et al. (1994) New […] Microbore Columns for Liquid Chromatography. Current Separations 12(4): 191-195. […] Concentrations of each compound are expressed as % baseline.
# serotonin receptors = settings: cited from earlier work
# [2] = tested on: norepinephrine (NE) in hypothalamus; test: Brain microdialysis: norepinephrine in hypothalamus; assay type: in vivo, rats; settings: 3 mg/kg olanzapine
# From the text: as §1
# [3] = tested on: dopamine (DA) in medial prefrontal cortex; test: Brain microdialysis: dopamine in mPFC; assay type: in vivo, rats; settings: 3 mg/kg olanzapine
# From the text: as §1
# histaminic receptors = settings: cited from earlier work
# [4] = tested on: alpha-adrenergic receptors; settings: cited from earlier work
# [5] = tested on: norepinephrine (NE) in medial prefrontal cortex; test: Brain microdialysis: norepinephrine in mPFC; assay type: in vivo, rats; settings: 3 mg/kg olanzapine
# From the text: as §1
# [6] = cited from earlier work
# [7] = tested on: serotonin (5HT) in hypothalamus; test: Brain microdialysis: serotonin in hypothalamus; assay type: in vivo, rats; settings: 3 mg/kg olanzapine
# From the text: as §1
# dopamine receptors = settings: cited from earlier work
# [8] = tested on: serotonin (5HT) in medial prefrontal cortex; test: Brain microdialysis: serotonin in mPFC; assay type: in vivo, rats; settings: 3 mg/kg olanzapine
# From the text: as §1
compound,measurement,setting,value
Cc1cc2c(s1)Nc1ccccc1N=C2N1CCN(C)CC1 [olanzapine],Dopamine concentrations in hypothalamus,[1]; 3 HOUR AVE,125.98 % baseline
same,Dopamine concentrations in hypothalamus,[1]; 40 min post dose,156.507 % baseline
same,Dopamine concentrations in hypothalamus,[1]; 80 min post dose,110.363 % baseline
same,Dopamine concentrations in hypothalamus,[1]; 120 min post dose,183.338 % baseline
same,Dopamine concentrations in hypothalamus,[1]; 160 min post dose,89.032 % baseline
same,Dopamine concentrations in hypothalamus,[1]; 200 min post dose,113.293 % baseline
same,Dopamine concentrations in hypothalamus,[1]; 240 min post dose,95.959 % baseline
same,Dopamine concentrations in hypothalamus,[1]; -20 min pre dose,99.830 % baseline
same,Dopamine concentrations in hypothalamus,[1]; -60 min pre dose,93.473 % baseline
same,Dopamine concentrations in hypothalamus,[1]; -100 min pre dose,106.697 % baseline
same,affinity for serotonin receptors,serotonin receptors,high affinity
same,Norepinephrine concentrations in hypothalamus,[2]; 3 HOUR AVE,129.18 % baseline
same,Norepinephrine concentrations in hypothalamus,[2]; 20 min post dose,161.934 % baseline
same,Norepinephrine concentrations in hypothalamus,[2]; 60 min post dose,148.422 % baseline
same,Norepinephrine concentrations in hypothalamus,[2]; 100 min post dose,115.418 % baseline
same,Norepinephrine concentrations in hypothalamus,[2]; 140 min post dose,118.651 % baseline
same,Norepinephrine concentrations in hypothalamus,[2]; 180 min post dose,113.533 % baseline
same,Norepinephrine concentrations in hypothalamus,[2]; 220 min post dose,115.014 % baseline
same,Norepinephrine concentrations in hypothalamus,[2]; -40 min pre dose,105.631 % baseline
same,Norepinephrine concentrations in hypothalamus,[2]; -80 min pre dose,103.272 % baseline
same,Norepinephrine concentrations in hypothalamus,[2]; -120 min pre dose,91.097 % baseline
same,Dopamine concentrations in mPFC,[3]; 3 HOUR AVE,209.94 % baseline
same,Dopamine concentrations in mPFC,[3]; 40 min post dose,227.023 % baseline
same,Dopamine concentrations in mPFC,[3]; 80 min post dose,266.655 % baseline
same,Dopamine concentrations in mPFC,[3]; 120 min post dose,219.135 % baseline
same,Dopamine concentrations in mPFC,[3]; 160 min post dose,186.256 % baseline
same,Dopamine concentrations in mPFC,[3]; 200 min post dose,202.788 % baseline
same,Dopamine concentrations in mPFC,[3]; 240 min post dose,153.048 % baseline
same,Dopamine concentrations in mPFC,[3]; -20 min pre dose,105.509 % baseline
same,Dopamine concentrations in mPFC,[3]; -60 min pre dose,119.009 % baseline
same,Dopamine concentrations in mPFC,[3]; -100 min pre dose,75.482 % baseline
same,affinity for histaminic receptors,histaminic receptors,lower affinity
same,affinity for alpha-adrenergic receptors,[4],lower affinity
same,Norepinephrine concentrations in mPFC,[5]; 3 HOUR AVE,154.642 % baseline
same,Norepinephrine concentrations in mPFC,[5]; 20 min post dose,162.923 % baseline
same,Norepinephrine concentrations in mPFC,[5]; 60 min post dose,197.693 % baseline
same,Norepinephrine concentrations in mPFC,[5]; 100 min post dose,159.929 % baseline
same,Norepinephrine concentrations in mPFC,[5]; 140 min post dose,141.759 % baseline
same,Norepinephrine concentrations in mPFC,[5]; 180 min post dose,147.978 % baseline
same,Norepinephrine concentrations in mPFC,[5]; 220 min post dose,117.569 % baseline
same,Norepinephrine concentrations in mPFC,[5]; -40 min pre dose,98.000 % baseline
same,Norepinephrine concentrations in mPFC,[5]; -80 min pre dose,119.880 % baseline
same,Norepinephrine concentrations in mPFC,[5]; -120 min pre dose,82.120 % baseline
same,patients with a weight gain of ≧7%,[6]; analysis of four studies of various durations,40%
same,time at which induced weight gain peaks,[6]; noticeable in the first month of treatment,about 9 months
same,Serotonin concentrations in hypothalamus,[7]; 3 HOUR AVE,89.0647 % baseline
same,Serotonin concentrations in hypothalamus,[7]; 40 min post dose,89.816 % baseline
same,Serotonin concentrations in hypothalamus,[7]; 80 min post dose,86.183 % baseline
same,Serotonin concentrations in hypothalamus,[7]; 120 min post dose,92.131 % baseline
same,Serotonin concentrations in hypothalamus,[7]; 160 min post dose,80.560 % baseline
same,Serotonin concentrations in hypothalamus,[7]; 200 min post dose,98.707 % baseline
same,Serotonin concentrations in hypothalamus,[7]; 240 min post dose,88.921 % baseline
same,Serotonin concentrations in hypothalamus,[7]; -20 min pre dose,107.440 % baseline
same,Serotonin concentrations in hypothalamus,[7]; -60 min pre dose,98.601 % baseline
same,Serotonin concentrations in hypothalamus,[7]; -100 min pre dose,93.959 % baseline
same,affinity for dopamine receptors,dopamine receptors,high affinity
same,Serotonin concentrations in mPFC,[8]; 3 HOUR AVE,88.1078 % baseline
same,Serotonin concentrations in mPFC,[8]; 40 min post dose,115.609 % baseline
same,Serotonin concentrations in mPFC,[8]; 80 min post dose,101.724 % baseline
same,Serotonin concentrations in mPFC,[8]; 120 min post dose,88.189 % baseline
same,Serotonin concentrations in mPFC,[8]; 160 min post dose,92.085 % baseline
same,Serotonin concentrations in mPFC,[8]; 200 min post dose,119.171 % baseline
same,Serotonin concentrations in mPFC,[8]; 240 min post dose,83.828 % baseline
same,Serotonin concentrations in mPFC,[8]; -20 min pre dose,98.453 % baseline
same,Serotonin concentrations in mPFC,[8]; -60 min pre dose,100.982 % baseline
same,Serotonin concentrations in mPFC,[8]; -100 min pre dose,100.565 % baseline
O=C1Cc2cc(CCN3CCN(c4nsc5ccccc45)CC3)c(Cl)cc2N1 [ziprasidone],affinity for serotonin receptors,serotonin receptors,high affinity
same,affinity for histaminic receptors,histaminic receptors,medium affinity
same,affinity for alpha-adrenergic receptors,[4],high affinity
same,affinity for dopamine receptors,dopamine receptors,high affinity
